Patent US20160193240A1, “Ulmoside-A: Useful For Prevention Or Cure Of Metabolic Diseases” (COUNCIL OF SCIENTIFIC & INDUSTRIAL RESEARCH, priority 2013, published 2016)

System: PGC-1α
Assay: PGC-1α acetylation status (immunoprecipitation, anti-acLys western) in C2C12 myotubes
Assay type: cell-based, mouse
Settings: 10 nM, 6 hours
Experimental: C. ULMA induces PGC-1α deacetylation. C2C12 myotubes plated in 10 cm dish were treated with vehicle (0.1% vol/vol DMSO) or 10 nM ULMA in DMSO for 6 h. The cell lysates were then incubated with 5 μg anti-PGC-1α antibody (Calbiochem) for 12 h at 4° C. on a rotating wheel set at 10 RPM. 20 μl of protein A and protein G sepharose beads (Sigma; 1:1) was then added to the solution and the incubation was continued for another 2 h. The tubes were then centrifuged (1000 RPM) for 1 min and the supernatant was discarded. The pellets were washed 7 times. The beads were boiled in 50 μl 2× lammeli buffer for 5 min and cooled immediately on ice and following quick spin, the supernatants were resolved by denaturing polyacrylamide gel electrophoresis and western blotted with anti-acetylated lysine (acLys) antibody. Data represent one of three independent experiments displaying identical pattern. […]

O=C1c2c(cc(O)c([C@@H]3O[C@H](CO)[C@@H](O)[C@H](O)[C@H]3O)c2O)O[C@@H](c2ccc(O)c(O)c2)[C@@H]1O [ULMA, (2S,3S)-(+)-3′,4′,5,7-tetrahydroxydihydroflavonol-6-C-β-D-glucopyranoside]
level of acetylated PGC-1α: decreased
